This experiment addresses T1, Recombinant human Protein-tyrosine phosphatase1B (PTP1B) (Homo sapiens, UniProt P18031).
T1 construct: Recombinant human Protein-tyrosine phosphatase1B (PTP1B) (amino acid 1-322 Biomol, USA); purchased Biomol, USA
T1 sequence (P18031 1-322): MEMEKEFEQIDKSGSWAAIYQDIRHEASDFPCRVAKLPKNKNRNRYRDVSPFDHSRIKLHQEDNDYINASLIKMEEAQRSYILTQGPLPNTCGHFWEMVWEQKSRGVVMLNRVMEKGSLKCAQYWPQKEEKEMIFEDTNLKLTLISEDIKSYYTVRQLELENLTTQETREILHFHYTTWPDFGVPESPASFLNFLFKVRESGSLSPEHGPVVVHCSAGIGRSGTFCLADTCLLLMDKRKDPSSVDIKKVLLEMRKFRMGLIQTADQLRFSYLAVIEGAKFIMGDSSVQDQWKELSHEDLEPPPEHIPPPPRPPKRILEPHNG
In words: PTP1B enzyme inhibition assay (pNpp substrate). The note with it: inhibition of recombinant human PTP1B, pNpp 5 mM, 30 mins at 25° C; inhibitor concentration not given. Type of experiment: biochemical. As to the method: Protein tyrosine phosphatase 1B (PTP1B) is an intracellular enzyme which functions by removing the phosphate groups from phosphorylated tyrosine residues of cellular proteins. PTP1B has been implicated as a negative regulator of insulin action and therefore is of therapeutic interest. The ability of the test compounds to inhibit the activity of PTP1B is determined using an enzyme inhibition assay.
The assay is performed using two independent substrates of PTP1B namely, p-nitrophenyl phosphate (pNpp) and the phosphorylated Epidermal growth factor receptor peptide (EGFR).
In the assay performed with pNpp, the action of PTP1B results in the release of p-nitrophenol, which is yellow in colour and can be measured at 410 nm. In the case of the assay using EGFR, action of PTP1B results in the release of free phosphate group. This is trapped using a reagent containing ammonium molybdate and malachite green resulting in a colored complex whose absorbance can be measured at 620 nm.
1× Assay buffer 50 mM HEPES (pH 7.4) • 1 mM EDTA • 1 mM DTT • 0.05% Igepal® CA-630
Dilute recombinant Human PTP1B 1:150 in 1× Assay buffer for 10× stock,
Prepare 10× stock of pNpp (50 mM) in 1× Assay buffer
Prepare 100× stock in 100% DMSO, dilute 1:10 with 1× Assay buffer to get 10× stock in 10% DMSO.
PTP1B inhibition assay was performed using recombinant human PTP1B. PTP1B (0.016 μg/well) was incubated in a buffer containing 50 mM HEPES, 1 mM DTT, 1 mM EDTA and 0.05% Igepal® CA-630 with or without inhibitor (10× stock, final DMSO concentration is 1%) for 30 mins at 25° C. This was followed by addition of p-Nitrophenyl phosphate (pNpp) substrate (5 mM). The final volume of the reaction mixture is 50 μL and experiment was done in 96 well half area plate. The incubation was continued for 30 mins at 25° C. The conversion of pNpp to p-Nitrophenol (pNp) was measured at 410 nm in Spectramaxplus Spectrophotometer (Molecular Devices, USA).
Take “4-[5-(6-Ethoxy-naphthalen-2-ylmethylene)-4-oxo-4,5-dihydro-thiazol-2-ylamino]-phenyl}-sodium acetate [Compound 143]”: the “Activity Score” value is on record as “(+++) (+++ = >50% inhibition)”.

On to `O=C(O)Cc1ccc(NC2=NC(=O)C(=Cc3ccc4ccccc4c3)S2)cc1` [Compound 1, [4-(5-Naphthalen-2-ylmethylene-4-oxo-4,5-dihydro-thiazol-2-ylamino)-phenyl]-acetic acid], for which the “Activity Score” value is recorded as “(+++) (+++ = >50% inhibition)”.

For the molecule `O=C(O)Cc1ccc(NC2=NC(=O)C(=Cc3cn(CC(=O)O)c4ccccc34)S2)cc1` [Compound 2, {4-[5-(1-Carboxymethyl-1H-indol-3-ylmethylene)-4-oxo-4,5-dihydro-thiazol-2-ylamino]-phenyl}-acetic acid], the “Activity Score” value was “(+++) (+++ = >50% inhibition)”. As to `O=C(O)Cc1ccc(NC2=NC(=O)C(=Cc3cc4ccccc4cc3OCc3ccccc3)S2)cc1` [Compound 3, {4-[5-(3-Benzyloxy-naphthalen-2-ylmethylene)-4-oxo-4,5-dihydro-thiazol-2-ylamino]-phenyl}-acetic acid], the “Activity Score” value is on record as “(+++) (+++ = >50% inhibition)”. In the case of `O=C(O)Cc1ccc(NC2=NC(=O)C(=Cc3ccccc3)S2)cc1` [Compound 5, [4-(5-Benzylidene-4-oxo-4,5-dihydro-thiazol-2-ylamino)-phenyl]-acetic acid], the “Activity Score” value is listed as “(+) (+ = 10-20% inhibition)”.

`COc1ccc2cc(C=C3SC(Nc4ccc(CC(=O)O)cc4)=NC3=O)ccc2c1` [Compound 7, {4-[5-(6-Methoxy-naphthalen-2-ylmethylene)-4-oxo-4,5-dihydro-thiazol-2-ylamino]-phenyl}-acetic acid]: the “Activity Score” value is “(+++) (+++ = >50% inhibition)”. For `O=C(O)Cc1ccc(NC2=NC(=O)C(=Cc3c[nH]c4ccccc34)S2)cc1` [Compound 8, {4-[5-(1H-Indol-3-ylmethylene)-4-oxo-4,5-dihydro-thiazol-2-ylamino]-phenyl}-acetic acid] the value was “(+) (+ = 10-20% inhibition)”; for `O=C(O)Cc1ccc(NC2=NC(=O)C(=Cc3ccc(-c4ccccc4)cc3)S2)cc1` [Compound 9, [4-(5-Biphenyl-4-ylmethylene-4-oxo-4,5-dihydro-thiazol-2-ylamino)-phenyl]-acetic acid], “(+++) (+++ = >50% inhibition)”.

For `CC(C)Oc1cc2ccccc2cc1C=C1SC(Nc2ccc(CC(=O)O)cc2)=NC1=O` [Compound 10, {4-[5-(3-Isopropoxy-naphthalen-2-ylmethylene)-4-oxo-4,5-dihydro-thiazol-2-ylamino]-phenyl}-acetic acid], the “Activity Score” value was “(++) (++ = 20-50% inhibition)”. Next, `CC(C)(C)OC(=O)Cn1cc(C=C2SC(Nc3ccc(CC(=O)O)cc3)=NC2=O)c2ccccc21` [Compound 11, {4-[5-(1-tert-Butoxycarbonylmethyl-1H-indol-3-ylmethylene)-4-oxo-4,5-dihydro-thiazol-2-ylamino]-phenyl}-acetic acid]: “(++) (++ = 20-50% inhibition)”; `CC(=C1SC(Nc2ccc(CC(=O)O)cc2)=NC1=O)c1cc2ccccc2o1` [Compound 13, {4-[5-(1-Benzofuran-2-yl-ethylidene)-4-oxo-4,5-dihydro-thiazol-2-ylamino]-phenyl}-acetic acid]: “(++) (++ = 20-50% inhibition)”.

For the molecule `O=C(O)Cc1cccc(NC2=NC(=O)C(=Cc3cc4ccccc4cc3OCc3ccccc3)S2)c1` [Compound 14, {3-[5-(3-Benzyloxy-naphthalen-2-ylmethylene)-4-oxo-4,5-dihydro-thiazol-2-ylamino]-phenyl}-acetic acid], the “Activity Score” value was “(++) (++ = 20-50% inhibition)”. Take `O=C(O)Cc1cccc(NC2=NC(=O)C(=Cc3ccc4ccccc4c3)S2)c1` [Compound 16, [3-(5-Naphthalen-2-ylmethylene-4-oxo-4,5-dihydro-thiazol-2-ylamino)-phenyl]-acetic acid]: the “Activity Score” value is on record as “(+) (+ = 10-20% inhibition)”. For `N#Cc1ccccc1-c1ccc(C=C2SC(Nc3ccc(CC(=O)O)cc3)=NC2=O)cc1` [Compound 17, {4-[5-(2′-Cyano-biphenyl-4-ylmethylene)-4-oxo-4,5-dihydro-thiazol-2-ylamino]-phenyl}-acetic acid] the value was “(++) (++ = 20-50% inhibition)”; for `O=C(O)Cc1ccc(NC2=NC(=O)C(=Cc3ccc(-n4cccc4)cc3)S2)cc1` [Compound 18, {4-[4-Oxo-5-(4-pyrrol-1-yl-benzylidene)-4,5-dihydro-thiazol-2-ylamino]-phenyl}-acetic acid], “(+++) (+++ = >50% inhibition)”. For `O=C(O)Cc1ccc(NC2=NC(=O)C(=Cc3ccc(-c4nnn[nH]4)cc3)S2)cc1` [Compound 19, (4-{4-Oxo-5-[4-(1H-tetrazol-5-yl)-benzylidene]-4,5-dihydro-thiazol-2-ylamino}-phenyl)-acetic acid], the “Activity Score” value is reported as “(+++) (+++ = >50% inhibition)”.

As to `CC(C)Oc1cc2ccccc2cc1C=C1SC(Nc2cccc(CC(=O)O)c2)=NC1=O` [Compound 21, {3-[5-(3-Isopropoxy-naphthalen-2-ylmethylene)-4-oxo-4,5-dihydro-thiazol-2-ylamino]-phenyl}-acetic acid], the “Activity Score” value is recorded as “(+++) (+++ = >50% inhibition)”. In the case of `Cc1ccc(S(=O)(=O)NC(=O)Cc2ccc(NC3=NC(=O)C(=Cc4cc5ccccc5cc4OCc4ccccc4)S3)cc2)cc1` [Compound 26, N-(2-{4-[5-(3-Benzyloxy-naphthalen-2-ylmethylene)-4-oxo-4,5-dihydro-thiazol-2-ylamino]-phenyl}-acetyl)-4-methyl-benzenesulfonamide], the “Activity Score” value is reported as “(+) (+ = 10-20% inhibition)”. Regarding `O=C(O)Cc1ccc(NC2=NC(=O)C(=Cc3cc4ccccc4cc3O)S2)cc1` [Compound 32, {4-[5-(3-Hydroxy-naphthalen-2-ylmethylene)-4-oxo-4,5-dihydro-thiazol-2-ylamino]-phenyl}-acetic acid], the “Activity Score” value is on record as “(+++) (+++ = >50% inhibition)”. Next, `O=C1N=C(Nc2ccc(Cc3nnn[nH]3)cc2)SC1=Cc1cc2ccccc2cc1OCc1ccccc1` [Compound 33, 5-(3-Benzyloxy-naphthalen-2-ylmethylene)-2-[4-(1H-tetrazol-5-ylmethyl)-phenylamino]-thiazol-4-one]: “(+) (+ = 10-20% inhibition)”; `O=C(O)Cc1ccc(NC2=NC(=O)C(=Cc3ccc(C(=O)N4CCOCC4)cc3)S2)cc1` [Compound 36, (4-{5-[4-(Morpholine-4-carbonyl)-benzylidene]-4-oxo-4,5-dihydro-thiazol-2-ylamino}-phenyl)-acetic acid]: “(+) (+ = 10-20% inhibition)”; `CC(C)(C)c1cc(C=C2SC(Nc3ccc(CC(=O)O)cc3)=NC2=O)cc(C(C)(C)C)c1O` [Compound 37, {4-[5-(3,5-Di-tert-butyl-4-hydroxy-benzylidene)-4-oxo-4,5-dihydro-thiazol-2-ylamino]-phenyl}-acetic acid]: “(+++) (+++ = >50% inhibition)”. For `O=C(O)CCc1ccc(NC2=NC(=O)C(=Cc3cn(CC(=O)O)c4ccccc34)S2)cc1` [Compound 43, 3-{4-[5-(1-Carboxymethyl-1H-indo-3-ylmethylene)-4-oxo-4,5-dihydro-thiazol-2-ylamino]-phenyl}-propionic acid] the value was “(+++) (+++ = >50% inhibition)”; for `CNS(=O)(=O)Cc1ccc(NC2=NC(=O)C(=Cc3cn(CC(=O)O)c4ccccc34)S2)cc1` [Compound 44, {3-[2-(4-Methylsulfamoylmethyl-phenylamino)-4-oxo-4H-thiazol-5-ylidenemethyl]-indol-1-yl}-acetic acid], “(+) (+ = 10-20% inhibition)”; for `O=C(O)Cc1ccc(NC2=NC(=O)C(=Cc3ccc(-n4cnnn4)cc3)S2)cc1` [Compound 45, {4-[4-Oxo-5-(4-tetrazol-1-yl-benzylidene)-4,5-dihydro-thiazol-2-ylamino]-phenyl}-acetic acid], “(+++) (+++ = >50% inhibition)”. Regarding `O=C(O)Cn1ccc2cc(NC3=NC(=O)C(=Cc4cc5ccccc5cc4OCc4ccccc4)S3)ccc21` [Compound 47, {5-[5-(3-Benzyloxy-naphthalen-2-ylmethylene)-4-oxo-4,5-dihydro-thiazol-2-ylamino]-indol-1-yl}-acetic acid], the “Activity Score” value was “(+++) (+++ = >50% inhibition)”.

The record behind these values is patent US20090088432A1, “Thiazolinones and Oxazolinones and their Use as Ptp1b Inhibitors” (priority 2005, published 2009).
